Measurements taken from patent publication US20230220063A1, “IL-1BETA BINDING ANTIBODIES FOR USE IN TREATING CANCER” (NOVARTIS AG, priority 2017, published 2023).

Test system: incident cancers in post-myocardial infarction patients with hsCRP ≥2 mg/L
Assay: CANTOS trial: incident cancers, cancer mortality, canakinumab vs placebo
Format: in vivo, human

Substance: canakinumab: high-affinity, fully human monoclonal antibody of the IgG1/k to interleukin-1β; INN number 8836
- Breast, incidence rate (number) (50 mg SC q 3 months): 0.09(7) per 100 person years
- Central Nervous System, incidence rate (number) (50 mg SC q 3 months): 0.04(3) per 100 person years
- Endocrine: Adrenal, incidence rate (number) (50 mg SC q 3 months): 0 per 100 person years
- Endocrine: Thyroid, incidence rate (number) (50 mg SC q 3 months): 0.01(1) per 100 person years
- Gastrointenstinal: Appendiceal, incidence rate (number) (50 mg SC q 3 months): 0 per 100 person years
- Gastrointenstinal: Biliary, incidence rate (number) (50 mg SC q 3 months): 0.03(2) per 100 person years
- Gastrointenstinal: Colorectal, incidence rate (number) (50 mg SC q 3 months): 0.25(20) per 100 person years
- Gastrointenstinal: Esophageal, incidence rate (number) (50 mg SC q 3 months): 0.08(6) per 100 person years
- Gastrointenstinal: Gastric, incidence rate (number) (50 mg SC q 3 months): 0.04(3) per 100 person years
- Gastrointenstinal: Oral cavity/tongue, incidence rate (number) (50 mg SC q 3 months): 0.03(2) per 100 person years
- Gastrointenstinal: Pancreatic, incidence rate (number) (50 mg SC q 3 months): 0.04(3) per 100 person years
- Genitourinary: Bladder, incidence rate (number) (50 mg SC q 3 months): 0.10(8) per 100 person years
- Genitourinary: Cervical, incidence rate (number) (50 mg SC q 3 months): 0 per 100 person years
- Genitourinary: Endometrial/Uterine, incidence rate (number) (50 mg SC q 3 months): 0.03(2) per 100 person years
- Genitourinary: Ovarian, incidence rate (number) (50 mg SC q 3 months): 0 per 100 person years
- Genitourinary: Prostate, incidence rate (number) (50 mg SC q 3 months): 0.19(15) per 100 person years
- Genitourinary: Testicular, incidence rate (number) (50 mg SC q 3 months): 0 per 100 person years
- Hematopoetic: Leukemia, incidence rate (number) (50 mg SC q 3 months): 0.01(1) per 100 person years
- Hematopoetic: Lymphoma, incidence rate (number) (50 mg SC q 3 months): 0.04(3) per 100 person years
- Hematopoetic: Multiple myeloma, incidence rate (number) (50 mg SC q 3 months): 0 per 100 person years
- Kidney, incidence rate (number) (50 mg SC q 3 months): 0.13(10) per 100 person years
- Liver, incidence rate (number) (50 mg SC q 3 months): 0.04(3) per 100 person years
- Lung Cancers: Adenocarcinoma or poorly differentiated large cell carcinoma or unspecified, incidence rate (number) (50 mg SC q 3 months): 0.33 per 100 person years
- Lung Cancers: Pleural cancer, incidence rate (number) (50 mg SC q 3 months): 0 per 100 person years
- Lung Cancers: Small cell lung cancer, incidence rate (number) (50 mg SC q 3 months): 0.01 (1) per 100 person years
- Lung Cancers: Squamous cell lung carcinoma, incidence rate (number) (50 mg SC q 3 months): 0.01 (1) per 100 person years
- Other cancer sites: Other, incidence rate (number) (50 mg SC q 3 months): 0.08(6) per 100 person years
- Sarcoma / Bone, incidence rate (number) (50 mg SC q 3 months): 0.01(1) per 100 person years
- Skin: Basal cell carcinoma, incidence rate (number) (50 mg SC q 3 months): 0.28(22) per 100 person years
- Skin: Melanoma, incidence rate (number) (50 mg SC q 3 months): 0.08(6) per 100 person years
- Skin: Other, incidence rate (number) (50 mg SC q 3 months): 0 per 100 person years
- Skin: Squamous cell skin cancer, incidence rate (number) (50 mg SC q 3 months): 0.10(8) per 100 person years
- Lung Cancers: Adenocarcinoma or poorly differentiated large cell carcinoma or unspecified, incidence rate (number) (50 mg SC q 3 months, listed as Canakinumab): 0.33 (26) per 100 person years
- Breast, incidence rate (number) (150 mg SC q 3 months): 0.05(4) per 100 person years
- Central Nervous System, incidence rate (number) (150 mg SC q 3 months): 0.05(4) per 100 person years
- Endocrine: Adrenal, incidence rate (number) (150 mg SC q 3 months): 0.01(1) per 100 person years
- Endocrine: Thyroid, incidence rate (number) (150 mg SC q 3 months): 0.02(2) per 100 person years
- Gastrointenstinal: Appendiceal, incidence rate (number) (150 mg SC q 3 months): 0 per 100 person years
- Gastrointenstinal: Biliary, incidence rate (number) (150 mg SC q 3 months): 0.03(3) per 100 person years
- Gastrointenstinal: Colorectal, incidence rate (number) (150 mg SC q 3 months): 0.19(16) per 100 person years
- Gastrointenstinal: Esophageal, incidence rate (number) (150 mg SC q 3 months): 0.03(3) per 100 person years
- Gastrointenstinal: Gastric, incidence rate (number) (150 mg SC q 3 months): 0.02(2) per 100 person years
- Gastrointenstinal: Oral cavity/tongue, incidence rate (number) (150 mg SC q 3 months): 0.05(4) per 100 person years
- Gastrointenstinal: Pancreatic, incidence rate (number) (150 mg SC q 3 months): 0.06(5) per 100 person years
- Genitourinary: Bladder, incidence rate (number) (150 mg SC q 3 months): 0.08(7) per 100 person years
- Genitourinary: Cervical, incidence rate (number) (150 mg SC q 3 months): 0.01(1) per 100 person years
- Genitourinary: Endometrial/Uterine, incidence rate (number) (150 mg SC q 3 months): 0 per 100 person years
- Genitourinary: Ovarian, incidence rate (number) (150 mg SC q 3 months): 0.01(1) per 100 person years
- Genitourinary: Prostate, incidence rate (number) (150 mg SC q 3 months): 0.16(14) per 100 person years
- Genitourinary: Testicular, incidence rate (number) (150 mg SC q 3 months): 0.01(1) per 100 person years
- Hematopoetic: Leukemia, incidence rate (number) (150 mg SC q 3 months): 0.02(2) per 100 person years
- Hematopoetic: Lymphoma, incidence rate (number) (150 mg SC q 3 months): 0.05(4) per 100 person years
- Hematopoetic: Multiple myeloma, incidence rate (number) (150 mg SC q 3 months): 0 per 100 person years
- Kidney, incidence rate (number) (150 mg SC q 3 months): 0.07(6) per 100 person years
- Liver, incidence rate (number) (150 mg SC q 3 months): 0.06(5) per 100 person years
- Lung Cancers: Adenocarcinoma or poorly differentiated large cell carcinoma or unspecified, incidence rate (number) (150 mg SC q 3 months): 0.27 per 100 person years
- Lung Cancers: Pleural cancer, incidence rate (number) (150 mg SC q 3 months): 0 per 100 person years
- Lung Cancers: Small cell lung cancer, incidence rate (number) (150 mg SC q 3 months): 0.01 (1) per 100 person years
- Lung Cancers: Squamous cell lung carcinoma, incidence rate (number) (150 mg SC q 3 months): 0.02 (2) per 100 person years
- Other cancer sites: Other, incidence rate (number) (150 mg SC q 3 months): 0.06(5) per 100 person years
- Sarcoma / Bone, incidence rate (number) (150 mg SC q 3 months): 0 per 100 person years
- Skin: Basal cell carcinoma, incidence rate (number) (150 mg SC q 3 months): 0.29(25) per 100 person years
- Skin: Melanoma, incidence rate (number) (150 mg SC q 3 months): 0.06(5) per 100 person years
- Skin: Other, incidence rate (number) (150 mg SC q 3 months): 0.06(5) per 100 person years
- Skin: Squamous cell skin cancer, incidence rate (number) (150 mg SC q 3 months): 0.15(13) per 100 person years
- Lung Cancers: Adenocarcinoma or poorly differentiated large cell carcinoma or unspecified, incidence rate (number) (150 mg SC q 3 months, listed as Canakinumab): 0.27 (23) per 100 person years
- Breast, incidence rate (number) (300 mg SC q 3 months): 0.06(5) per 100 person years
